Source: patent US10494404B2, “Quinolinium conjugates of cyclosporin” (priority 2014, dated 2019)

Key:
[1] = system: DIV 8-9 rat cortical neurons; test: Mitochondrial functional parameters in DIV 8-9 rat cultured cortical neurons; format: cell-based; conditions: Compound 1 up to 200 nM, CsA up to 1 μM
Method: The minimum value after the addition of compound (prior to the addition of FCCP) was taken, and this was expressed as a % (using baseline as 100% and FCCP as 0%), and then normalized to DMSO (100%). Significance was assessed by one-way ANOVA, in comparison to DMSO control.
Freshly isolated mitochondria were resuspended in MSK buffer (containing 10 mM glutamate and 2 mM malate) at 1 mg/ml and plated in opaque white 96 well plates, or for neuronal assays, neurons were used 9 days after plating at 15000 cells/well. Drugs were added at the concentrations specified, and for mitochondrial assays were incubated for ten minutes before addition of ADP (5 mM), followed by another 45 minutes. For neuronal assays, drugs were added in neurobasal medium and incubated for 60 minutes. Cell Titer Glo reagent was then added, and the plate shaken for 2 minutes in the dark to lyse cells/mitochondria and release ATP. The plates were incubated a further ten minutes and then luminescence values read using an Optima FluoStar.

[2] = system: Ca^2+ mediated PT pore formation; test: Calcium retention capacity (CRC) assay, isolated WT mouse liver mitochondria; format: biochemical
Description: In order to assess the efficiency of compounds on Ca^2+ mediated PT pore formation we measured calcium retention capacity (CRC) of isolated mouse liver mitochondria. […] Energised mitochondria take up Ca^2+, resulting in a declining fluorescent signal following the Ca^2+ bolus induced peak. Mitochondria take up and buffer Ca^2+ up to a threshold when intramitochondrial [Ca^2+] reaches threshold to induce PT. […] The amount of Ca^2+ required to induce PT characterizes its Ca^2+ sensitivity and defines mitochondrial CRC. Inhibition of CypD, the Ca^2+ sensor of PT, thus leads to increased CRC.
Further experiments were carried out using the techniques discussed in Example 4.
Subcellular fractionation was performed as previously described (Astin et al, 2013). […] At 4° C., the liver was rinsed in PBS to remove excess blood, and any fat and connective tissue was eliminated. PBS was then replaced with isolation buffer containing 1 mM PMSF, and the liver was chopped into pieces (approximately 2 mm in length). Tissue was then homogenized in this solution until no solid matter remained, and then centrifuged at 800G for 10 minutes at 4° C. The nuclear pellet was then discarded, and the post nuclear supernatant retained, and centrifuged at 10300G for another 10 minutes at 4° C. The postmitochondrial supernatant was discarded, and the mitochondrial pellet was resuspended in isolation buffer and PMSF, and kept on ice. Protein levels were quantified using a ThermoScientific BCA protein quantification assay, as per manufacturer's instructions.
Isolated mitochondria were resuspended (500 μg protein/ml) in MSK buffer (75 mM mannitol, 25 mM sucrose, 5 mM potassium phosphate monobasic, 20 mM Tris-HCl, 100 mM KCl, and 0.1% bovine serum albumin, pH 7.4) supplemented with 10 mM succinate, 1 μM rotenone and 1 μM Fluo5N. 200 μl mitochondrial suspension per well was used in 96 well microplates. Compounds were incubated for ten minutes before the plate was assayed in a Fluostar Optima plate reader, using Ex/Em filters at 480/520 […]; CaCl2 was injected approximately every 6.5 minutes for 80 minutes (12 total injections, final concentration of 75 μM). To calculate % inhibition of Ca^2+ induced pore opening, first areas under each curve were calculated, and controls without CaCl2 addition were subtracted as background. The background corrected values were then expressed as the fraction of controls without mitochondria, representing the total amount of Ca^2+ added, unbuffered by mitochondria. Percentage inhibition for each [compound] was then calculated as the % of the corresponding value for the untreated condition. […] For experiments with CypD −/− mice, 100 ul mitochondrial suspension per well was used. CaCl2) was injected approximately every 6.5 minutes for 135 minutes (20 total injections, final concentration of 266 μM). Data were background corrected and expressed as the fraction of controls without mitochondria, and then normalised to the wild type no drug condition. Significance was assessed by one way ANOVA.

HepG2 cells = test: HepG2 high content screening of cell health markers; format: cell-based; conditions: HepG2, 72 h exposure
Method: HepG2 cells were plated on 96-well tissue culture treated black walled clear bottomed polystyrene plates, 100 μL, (3000 cells) per well. After 24 hours the cells were dosed with the test compounds at a range of concentrations. At the end of the incubation period, the cells were loaded with the relevant dye/antibody for each cell health markers set out below. The plates were then scanned using an automated fluorescent cellular imager [ArrayScan VTI (Thermo Scientific Cellomics)].
The following cell health markers were measured: • a. Cell count—a decreasing number of cells per well indicates toxicity due to necrosis, apoptosis or a reduction in cellular proliferation. • b. Nuclear area—an increase in nuclear size indicates necrosis or G2 cell cycle arrest and a decrease indicates apoptosis. • c. DNA structure—an increase in DNA structure indicates chromosomal instability and DNA fragmentation. • d. […]
HepG2 cells were seeded in black, clear-bottom 96-well tissue culture plates at a density of 3000 cells per well. […] Cell count, nuclear size and DNA structure were also measured Hoechst 33342 (Life Technologies). Following staining of the HepG2 cells fluorescence was analyzed by image acquisition with a Thermo Fisher Cellomics® ArrayScanVTI High Content Screening Reader (ThermoFisher Scientific Inc., Waltham, Mass.) and vHCS™ view software (ThermoFisher Scientific Inc.). […]

SMILES: CC[C@@H]1NC(=O)[C@H]([C@H](O)[C@H](C)C/C=C/CCC[n+]2cccc3ccccc32)N(C)C(=O)[C@H](C(C)C)N(C)C(=O)[C@H](CC(C)C)N(C)C(=O)[C@H](CC(C)C)N(C)C(=O)[C@@H](C)NC(=O)[C@H](C)NC(=O)[C@H](CC(C)C)N(C)C(=O)[C@H](C(C)C)NC(=O)[C@H](CC(C)C)N(C)C(=O)CN(C)C1=O [Compound 1, [Gly-(1S,2R,E)-8-quinolinium-1-hydroxy-2-methyloct-4-ene]^1 CsA]
- mitochondrial membrane potential ([1]; TMRM): Neither mitochondrial membrane potential (FIG. 4A,B), oxygen consumption (FIG. 4C, D) and ATP production (FIG. 4E, F) were affected
- ATP levels / ATP production ([1]; luciferase assay): Neither mitochondrial membrane potential (FIG. 4A,B), oxygen consumption (FIG. 4C, D) and ATP production (FIG. 4E, F) were affected
- toxicity (cell health markers) compared with unmodified CsA (HepG2 cells): significantly reduced the toxicity of cyclosporin
